Results published in patent US20040127492A1 (Pharmacia Corporation, priority 2002, published 2004).
Where two headings read alike, the source gives them in different places.

Legend:
MAPKAPK2 (MK-2) = MAPKAPK2 (MK-2) (Homo sapiens, UniProt P49137); test: Determination of MK-2 IC50 (HSP-peptide phosphorylation, anion exchange resin capture assay); format: biochemical
Experimental: Determination of MK-2 IC50:
Recombinant MAPKAPK2 was phosphorylated at a concentration of 42-78 μM by incubation with 0.23 μM of active p38α in 50 mM HEPES, 0.1 mM EDTA, 10 mM magnesium acetate, and 0.25 mM ATP, pH 7.5 for one hour at 30° C.
The phosphorylation of HSP-peptide ([…]) by MAPKAPK2 was measured using an anion exchange resin capture assay method. The reaction was carried out in 50 mM β-glycerolphosphate, 0.04% BSA, 10 mM magnesium acetate, 2% DMSO and 0.8 mM dithiotheritol, pH 7.5 in the presence of the HSP-peptide with 0.2 μCi [γ^33P]ATP and 0.03 mM ATP. The reaction was initiated by the addition of 15 nM MAPKAPK2 and was allowed to incubate at 30° C. for 30 min. The reaction was terminated and [γ^33P]ATP was removed from solution by the addition of 150 μl of AG 1×8 ion exchange resin in 900 mM sodium formate pH 3.0. A 50 μl aliquot of head volume was removed from the quenched reaction mixture and added to a 96-well plate, 150 μl of Microscint-40 (Packard) was added and the amount of phosphorylated-peptide was determined. Allow the Microscint to sit in the plates for 60 minutes prior to counting.
Compounds are evaluated as potential inhibitors of the MK-2 kinase by measuring their effects on MK-2 phosphorylation of the peptide substrate. Compounds may be screened initially at two concentrations prior to determination of IC50 values. Screening results are expressed as percent inhibition at the concentrations of compound tested. For IC50 value determinations, Compounds are tested at six concentrations in ten-fold serial dilutions with each concentration tested in triplicate. Results are expressed as IC50 values in micromolar. The assay is performed at a final concentration of 2% DMSO.

MK-3 = MK-3 (Homo sapiens, UniProt Q16644); test: MK-3 inhibition IC50 (similar method to MK-2, with appropriate modifications); format: biochemical; conditions: read-out: MK-3 Avg. IC50
Experimental: In practice, the selectivity of a cyclic pyrazole MK-2 inhibitor varies depending upon the condition under which the test is performed and on the inhibitors being tested. However, for the purposes of this specification, the selectivity of a cyclic pyrazole MK-2 inhibitor inhibitor can be measured as a ratio of the in vitro or in vivo IC50 value for inhibition of MK-3, divided by the IC50 value for inhibition of MK-2 (IC50 MK-3/IC50 MK-2). […] The MK-2 or MK-3 inhibiting activity of any of the compounds described herein can be determined by any one of several methods that are well known to those having skill in the art of enzyme activity testing. […] A similar method, with appropriate modifications, Can be used to measure MK-3 inhibitory activity. In addition, the efficacy of one of the present MK-2 inhibiting compounds in therapeutic applications can be determined by testing for inhibition of TNFα production in cell culture and in animal model assays.

[1] = Table 2, pyrazolylpyrazole MK-2 inhibitors, read-out: MK-2 Avg. IC50
[2] = Table 2, pyrazolylpyrazole MK-2 inhibitors
[3] = Table 1, phenoxypyrazole MK-2 inhibitors, read-out: MK-2 Avg, IC50
[4] = Table 1, phenoxypyrazole MK-2 inhibitors

MAPKAPK2 (MK-2), sequence (P49137 whole entry, species assumed): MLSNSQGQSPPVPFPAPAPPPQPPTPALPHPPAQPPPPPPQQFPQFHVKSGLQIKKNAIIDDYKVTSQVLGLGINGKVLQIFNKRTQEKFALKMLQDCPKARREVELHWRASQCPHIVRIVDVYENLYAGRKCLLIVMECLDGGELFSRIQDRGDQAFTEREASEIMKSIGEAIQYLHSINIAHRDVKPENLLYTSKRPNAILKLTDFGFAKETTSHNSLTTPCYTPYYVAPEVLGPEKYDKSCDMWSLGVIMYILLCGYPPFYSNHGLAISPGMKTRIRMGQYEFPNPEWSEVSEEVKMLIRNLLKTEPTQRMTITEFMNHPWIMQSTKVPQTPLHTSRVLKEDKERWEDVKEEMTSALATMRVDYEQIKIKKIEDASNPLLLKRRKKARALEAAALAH
MK-3, sequence (Q16644 whole entry, species assumed): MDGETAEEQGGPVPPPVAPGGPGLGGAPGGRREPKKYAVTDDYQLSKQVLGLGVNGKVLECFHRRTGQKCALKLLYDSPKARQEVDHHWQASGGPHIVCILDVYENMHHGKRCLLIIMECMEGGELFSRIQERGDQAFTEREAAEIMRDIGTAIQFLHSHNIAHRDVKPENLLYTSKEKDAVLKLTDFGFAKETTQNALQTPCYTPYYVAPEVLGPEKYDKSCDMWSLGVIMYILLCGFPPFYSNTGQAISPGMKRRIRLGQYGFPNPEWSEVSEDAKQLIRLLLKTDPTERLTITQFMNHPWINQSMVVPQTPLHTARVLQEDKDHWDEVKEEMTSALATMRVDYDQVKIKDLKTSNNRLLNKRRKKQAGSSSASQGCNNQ

Structure (SMILES): CCOC(=O)c1[nH]nc2c1CCc1c-2cnn1-c1ccccc1 [Example 47]
- IC50 (MAPKAPK2 (MK-2); [1]): ≥ 200 µM
- IC50 (MK-3; [2]): ≥ 200 µM

Structure (SMILES): CCOC(=O)Cn1nc2c(c1C(=O)OCC)CCc1[nH]ncc1-2 [Example 113]
- IC50 (MAPKAPK2 (MK-2); [1]): ≥ 200 µM
- IC50 (MK-3; [2]): ≥ 200 µM

Structure (SMILES): NCCCn1nc2c(c1C(=O)O)CCc1[nH]nc(SCc3ccccc3)c1-2 [Example 6]
- IC50 (MAPKAPK2 (MK-2); [1]): 2.89 µM
- IC50 (MK-3; [2]): 22.1 µM

Structure (SMILES): O=C(O)c1[nH]nc2c1CCc1c-2cnn1CCO [Example 30]
- IC50 (MAPKAPK2 (MK-2); [1]): 114 µM
- IC50 (MK-3; [2]): ≥ 200 µM

Structure (SMILES): NCCCn1nc2c(c1C(=O)O)CCc1cc(O)c(-c3ccccc3Cl)cc1-2 [Example 30]
- IC50 (MAPKAPK2 (MK-2); [3]): 29.8 µM
- IC50 (MK-3; [4]): 60.7 µM

Structure (SMILES): O=C1NC(CO)Cn2nc3c(c21)CCc1cnc(-c2cnc4ccccc4c2)cc1-3 (centres unmarked) [Example 9]
- IC50 (MAPKAPK2 (MK-2); read-out: MK-2 Avg. IC50): 0.0313 µM
- IC50 (MK-3): 5.68 µM

Structure (SMILES): CN(C)c1cccc(-c2cc3c(cn2)CCc2c-3nn3c2C(=O)NCCC3)c1 [Example 53]
- IC50 (MAPKAPK2 (MK-2); read-out: MK-2 Avg. IC50): 0.483 µM
- IC50 (MK-3): 4.92 µM

Structure (SMILES): O=C1NCCCn2nc3c(c21)CCc1[nH]nc(SCc2ccccc2)c1-3 [Example 16]
- IC50 (MAPKAPK2 (MK-2); [1]): 23.8 µM
- IC50 (MK-3; [2]): 56 µM

Structure (SMILES): NCCCn1nc2c(c1C(=O)O)CCc1cc(O)c(-c3ccc(F)c(F)c3)cc1-2 [Example 17]
- IC50 (MAPKAPK2 (MK-2); [3]): 14.2 µM
- IC50 (MK-3; [4]): 167 µM

Structure (SMILES): O=C(O)c1c2c(nn1CCCO)-c1cn[nH]c1CC2 [Example 27]
- IC50 (MAPKAPK2 (MK-2); [1]): 103 µM
- IC50 (MK-3; [2]): ≥ 200 µM

Structure (SMILES): NCCCn1nc2c(c1C(=O)O)CCc1cc(O)c(-c3cccc(N)c3)cc1-2 [Example 19]
- IC50 (MAPKAPK2 (MK-2); [3]): 17.2 µM
- IC50 (MK-3; [4]): 166 µM

Structure (SMILES): C=CCn1nc2c(c1C(=O)O)CCc1[nH]ncc1-2 [Example 15]
- IC50 (MAPKAPK2 (MK-2); [1]): 22.7 µM
- IC50 (MK-3; [2]): 134 µM

Structure (SMILES): NCCCn1nc2c(c1C(=O)O)CCc1cnc(Nc3ccccc3)cc1-2 [Example 16]
- IC50 (MAPKAPK2 (MK-2); read-out: MK-2 Avg. IC50): 0.074 µM
- IC50 (MK-3): 1.15 µM

Structure (SMILES): NCCCn1nc2c(c1C(=O)O)CCc1cc(O)c(-c3cccc(C(F)(F)F)c3)cc1-2 [Example 11]
- IC50 (MAPKAPK2 (MK-2); [3]): 7.53 µM
- IC50 (MK-3; [4]): 71.7 µM

Structure (SMILES): CCOC(=O)c1c2c(nn1CCCN)-c1cc(/C=C/c3ccccc3)ncc1CC2 [Example 38]
- IC50 (MAPKAPK2 (MK-2); Table 5, other cyclic pyrazole MK-2 inhibiting compounds, read-out: MK-2 Avg. IC50): 3.61 µM
- IC50 (MK-3; Table 5, other cyclic pyrazole MK-2 inhibiting compounds): > 20 µM

Structure (SMILES): COc1ccc(-n2nc(C(=O)O)c3c2-c2ccc(OC)cc2CC3)cc1 [Example 162]
- IC50 (MAPKAPK2 (MK-2); [3]): > 200 µM
- IC50 (MK-3; [4]): > 200 µM

Structure (SMILES): COC(=O)c1nn(-c2ccc(OC)cc2)c2c1CCc1cc(OC)ccc1-2 [Example 163]
- IC50 (MAPKAPK2 (MK-2); [3]): > 200 µM
- IC50 (MK-3; [4]): > 200 µM

Structure (SMILES): COc1cc2c(cc1CCc1ccc(Cl)cc1)-c1nn(CCCNC(=O)OC(C)(C)C)c(C(=O)O)c1CC2 [Example 40]
- IC50 (MAPKAPK2 (MK-2); [3]): 59.6 µM
- IC50 (MK-3; [4]): > 200 µM

Structure (SMILES): COc1cc2c(cc1-c1cccc(C#N)c1)-c1nn(CCCNC(=O)OC(C)(C)C)c(C(=O)O)c1CC2 [Example 38]
- IC50 (MAPKAPK2 (MK-2); [3]): 56.2 µM
- IC50 (MK-3; [4]): > 200 µM

Structure (SMILES): NCCCn1nc2c(c1C(=O)O)CCc1cc(O)c(-c3ccc([N+](=O)[O-])cc3)cc1-2 [Example 9]
- IC50 (MAPKAPK2 (MK-2); [3]): 4.91 µM
- IC50 (MK-3; [4]): 104 µM

Structure (SMILES): CNC(=O)c1[nH]nc2c1CCc1cc(O)ccc1-2 [Example 69]
- IC50 (MAPKAPK2 (MK-2); [3]): 176 µM
- IC50 (MK-3; [4]): > 200 µM

Structure (SMILES): O=C(O)c1c2c(nn1CCCNS(=O)(=O)Cc1ccc(Cl)cc1)-c1cc(-c3cnc4ccccc4c3)ncc1CC2 [Example 54]
- IC50 (MK-3): 6.46 µM

Structure (SMILES): COc1cc2c(cc1CCC(F)(F)F)-c1nn(CCCNC(=O)OC(C)(C)C)c(C(=O)O)c1CC2 [Example 54]
- IC50 (MK-3; [4]): > 200 µM

Structure (SMILES): COC(=O)c1[nH]nc2c1CCc1cnccc1-2 [Example 275]
- IC50 (MAPKAPK2 (MK-2); read-out: MK-2 Avg. IC50): 171 µM

Structure (SMILES): O=C1NCCn2nc3c(c21)CCc1c-3ccnc1Cl [Example 194]
- IC50 (MAPKAPK2 (MK-2); read-out: MK-2 Avg. IC50): 27.7 µM

Structure (SMILES): O=C(O)c1c2c(nn1CC=NO)-c1ccncc1CC2 [Example 229]
- IC50 (MAPKAPK2 (MK-2); read-out: MK-2 Avg. IC50): 71 µM

Structure (SMILES): O=C1NCCCn2nc3c(c21)CCc1cnc(-c2ccccc2)nc1-3 [Example 11]
- IC50 (MAPKAPK2 (MK-2); Table 4, pyrimidylpyrazole MK-2 inhibitors, read-out: MK-2 Avg. IC50): 81.4 µM

Structure (SMILES): O=C1NCCn2nc3c(c21)CCc1c-3ccnc1Nc1ccccc1 [Example 215]
- IC50 (MAPKAPK2 (MK-2); read-out: MK-2 Avg. IC50): 53.8 µM

Structure (SMILES): CC(C)(C)c1ccc(-c2cc3c(cn2)CCc2c-3nn3c2C(=O)NCC3)cc1 [Example 248]
- IC50 (MAPKAPK2 (MK-2); read-out: MK-2 Avg. IC50): 101 µM
